Test system: ventricular contractile force
Assay: Ventricular contractile force in anesthetized open-chest dogs (strain gauge on left ventricle), i.v. injection into left saphenous vein
Format: in vivo
Settings: for ED (30% increase): Canis lupus familiaris, iv, male dogs, anesthetized, injected into left saphenous vein, read-out: Dose which induces about 30% increase in the ventricular contractile force; for t 1/2: period of time in decreasing the cardiac contractile force to 50% of its maximum value: male dogs 11 to 13 kg, sodium pentobarbital anesthesia, i.v., dose inducing about 30% increase in ventricular contractile force, ± S.E.
Experimental: Male dogs weighing about 11 to 13 kg were anesthetized with sodium pentobarbital (30 mg/kg, i.v.). Under artificial respiration, the heart was exposed by thoractomy, and a calibrated strain gauge was attached to the wall of the left ventricle for oscillographical measurement of the ventricular contractile force. The heart rate was recorded by cardiotachography, triggered by arterial pulse. A test compound was injected into the left saphenous vein at a dose which induces about 30% increase in the ventricular contractile force.
*:Period of time in decreasing the cardiac contractile force to 50% of it

Compound	ED (30% increase)	t 1/2: period of time in decreasing the cardiac contractile force to 50% of its maximum value
COc1ccc(CCNCC(O)c2ccc(OC(=O)c3ccccc3)cc2)cc1OC (stereo not drawn) [α-(3,4-dimethoxyphenethylaminomethyl)-4-benzoyloxybenzylalcohol]	0.039 mg/kg	1453 ± 43 s
COc1ccc(CCNCC(O)c2ccc(OC(=O)c3ccc(C)cc3)cc2)cc1OC (stereo not drawn) [α-(3,4-dimethoxyphenethylaminomethyl)-4-p-toluoyloxybenzylalcohol]	0.04 mg/kg	1495 ± 25 s
COc1ccc(CCNCC(O)c2ccc(OC(=O)C(C)(C)C)cc2)cc1OC (stereo not drawn) [α-(3,4-dimethoxyphenethylaminomethyl)-4-pivaloyloxybenzylalcohol]	0.037 mg/kg	1232 ± 71 s

— patent US4324800A, “Novel benzylalcohol derivatives and processes for preparing same” (Tanabe Seiyaku Co., Ltd., priority 1980, dated 1982)
